In patent US20170348280A1 (priority 2016, published 2017):
Read-outs that look alike come from different tables or passages of the source.

Assays:
[1] = cited from earlier work
[2] = system: ECM deposition of collagen type I by cultured AoSMC; experiment: ECM deposition of collagen type I by cultured AoSMC (immunoassay); details: for reduction of ascorbyl palmitate dependent deposition of collagen type 1 to the ECM / reduction of ascorbic acid dependent deposition of collagen type 1 to the ECM: 50 μM nifedipine
[3] = system: ECM deposition of collagen type IV by AoSMC; experiment: ECM deposition of collagen type IV by AoSMC (immunoassay); assay type: cell-based, human; details: for increased collagen IV deposition: compared to 1.25 μM; for decrease in ascorbyl palmitate dependent ECM deposition of collagen IV / reduction of ascorbic acid dependent deposition of collagen type IV to the ECM: 50 μM nifedipine
Experimental: (§1) Both cell cultures were maintained in DMEM medium (ATCC) containing antibiotics and 5% fetal bovine serum (FBS, ATCC). All cell cultures were maintained at 37° C. and 5% CO2 atmosphere. Cell viability was monitored with MTT assay.
(§2) Collagen production by human cultured cells: In the case of these experiments, DF or AoSMC, at 5th to 8th passages, were seeded on collagen type I-covered plastic plates (Becton-Dickinson, collagen I isolated from rat tail tendon) at density of 25,000/cm^2 and grown to confluence for 5-7 days. […] Tested compounds were added to cells at indicated concentrations for 72 h in DMEM supplemented with 2% FBS and cell-produced extracellular matrix was exposed by sequential treatment with 0.5% Triton X100 and 20 mM ammonium […] in phosphate buffered saline (PBS, Life Technologies) for 3 min each at room temperature. After four washes with PBS, ECM layers were treated with 1% bovine serum albumin (BSA) in PBS for one hour at room temperature and immediately used in experiments.
(§3) Collagen and beta-actin immunoassays: Immunoassays were done by sequential incubation with primary monoclonal antibodies specific to human collagen type I or IV or human beta-actin in 1% BSA/PBS for 2 hours followed by 1 hour incubation with secondary goat anti-mouse IgG antibodies labeled with horse radish peroxidase (HRP).
(§4) Differences between samples were estimated with a two-tailed Student's t-test using MedCalc software (Mariakerke, Belgium) and accepted as significant at p levels less than 0.05.

[4] = system: ascorbate accumulation inside human AoSMC; experiment: Intracellular ascorbic acid assay in AoSMC; assay type: cell-based
Experimental: Cells were washed briefly three times with ice-cold PBS on ice and incubated with 300 μl of 0.1% saponin in 1% ethanol in PBS for 10 min on an orbit mixer. Samples were collected to Eppendorf tubes and centrifuged at 13,000×g for 5 min. Supernatants were used in an ascorbic acid assay (Ascorbic Acid Colorimetric Assay Kit […], BioVision) in accordance with the manufacturer's protocol. […] Differences between samples were estimated with a two-tailed Student's t-test using MedCalc software ([…], Belgium) and accepted as significant at p levels less than 0.05.

[5] = system: smooth muscle cells; experiment: Cell viability / cytotoxicity (MTT assay), smooth muscle cells; assay type: cell-based, human; details: cultured smooth muscle cells; data not shown
Experimental: as §1

[6] = system: cultured fibroblasts; experiment: Cell viability / cytotoxicity (MTT assay), fibroblasts; assay type: cell-based, human; details: data not shown
Experimental: as §1

[7] = system: collagen type I ECM deposition by cultured human skin fibroblasts; experiment: Collagen type I ECM deposition by cultured human skin fibroblasts (immunoassay); assay type: cell-based; details: channel blocker alone, without ascorbate; 72 h; FIG. 1A-1F
Experimental: as §1, §2
as §3, with “(HRP). […]” for “(HRP).”

[8] = system: human vascular smooth muscle cells and fibroblasts; details: cited from earlier work
[9] = system: intracellular content of beta-Actin in AoSMC; experiment: Intracellular content of beta-actin in AoSMC (immunoassay); assay type: cell-based, human; details: for reduction of ascorbate-dependent beta-actin intracellular content compared to control: 50 μM nifedipine; for reduction of intracellular beta actin content: nifedipine
Experimental: as §1, §2, §3, §4

[10] = system: intracellular content of collagen type I normalized to beta actin content in aortic smooth muscle cells; experiment: Intracellular collagen type I normalized by beta actin content in AoSMC; assay type: cell-based, human; details: for reduction of intracellular content of collagen type I normalized to beta actin content compared to the control: 50 μM nifedipine
Experimental: as §2, §3, §4

[11] = system: intracellular content of collagen type I in AoSMC; experiment: Intracellular content of collagen type I in AoSMC (immunoassay); assay type: cell-based, human; details: for reduction of ascorbate-dependent intracellular collagen type 1 synthesis: 50 μM nifedipine; for reduction of ascorbate-dependent collagen type 1 synthesis: nifedipine
Experimental: as §1, §2, §3, §4

[12] = 100 μM ascorbic acid compared to 25 μM ascorbic acid
[13] = 400 μM ascorbic acid compared to 25 μM ascorbic acid

SMILES: O=C1O[C@H]([C@@H](O)CO)C(O)=C1O [ascorbic acid]
- excretion half-life ([1]; body stores depleted, by the onset of the first symptoms of scurvy): 83 days
- renal resorption threshold (plasma level) ([1]; men): about 1.5 mg/dL
- half-life of excretion in the urine ([1]; plasma concentrations larger than renal resorption threshold): about 30 minutes
- renal resorption threshold (plasma level) ([1]; women): ~1.3 mg/dL
- increase of collagen type 1 ECM deposition [2, 12]: 114%
- increase of collagen type 1 ECM deposition [2, 13]: 176%
- increased collagen IV ECM deposition [3, 12]: 175%
- increased collagen IV ECM deposition [3, 13]: 166%

SMILES: CCCCCCCCCCCCCCCC(=O)OC[C@H](O)[C@H]1OC(=O)C(O)=C1O [ascorbyl palmitate]
- higher intracellular levels of ascorbic acid compared to the highest concentration of ascorbic acid used (400) ([4]; supplementation with 20 ascorbyl palmitate (unit not given)): 10 ×
- levels found to be cytotoxic [5]: higher than 20 μM
- levels found to be cytotoxic [6]: higher than 20 μM
- increase of collagen type 1 ECM deposition ([2]; 2.5 μM ascorbyl palmitate administered individually, compared to 1.25 μM): 135%
- increase of collagen type 1 ECM deposition ([2]; 5 μM ascorbyl palmitate administered individually, compared to 1.25 μM): 189%
- increase of collagen type 1 ECM deposition ([2]; 10 μM ascorbyl palmitate administered individually, compared to 1.25 μM): 184%
- increase of collagen type 1 ECM deposition ([2]; 20 μM ascorbyl palmitate administered individually, compared to 1.25 μM): 212%
- increased collagen IV deposition ([3]; 2.5 μM ascorbyl palmitate alone): 113%
- increased collagen IV deposition ([3]; 5 μM ascorbyl palmitate alone): 144%
- increased collagen IV deposition ([3]; 10 μM ascorbyl palmitate alone): 138%
- increased collagen IV deposition ([3]; 20 μM ascorbyl palmitate alone): 168%

SMILES: COc1cc(CNC(=O)CCCC/C=C/C(C)C)ccc1O [capsaicin]
- inhibition of collagen type I deposition to the ECM [7]: slight, insignificant inhibition

SMILES: COc1ccc([C@@H]2Sc3ccccc3N(CCN(C)C)C(=O)[C@@H]2OC(C)=O)cc1 [ditiazem]
- inhibition of collagen type I deposition to the ECM [7]: up to 13.1%
- constitutive and platelet-derived growth factor-dependent collagen deposition in the ECM [8]: significantly decreased

SMILES: COC(=O)C1=C(C)NC(C)=C(C(=O)OC)C1c1ccccc1[N+](=O)[O-] [nifedipine]
- reduction of ascorbate-dependent beta-actin intracellular content compared to control ([9]; 25 μM ascorbic acid): 29%
- reduction of ascorbate-dependent beta-actin intracellular content compared to control ([9]; 100 μM ascorbic acid): 22.6%
- reduction of ascorbate-dependent beta-actin intracellular content compared to control ([9]; 400 μM ascorbic acid): 5%
- reduction of intracellular beta actin content ([9]; 5 μM ascorbyl palmitate): 22%
- reduction of intracellular beta actin content ([9]; 20 μM ascorbyl palmitate): 23.6%
- effect on intracellular ascorbate levels [4]: no significant effect
- decrease of intracellular ascorbate ([4]; 50 μM nifedipine, 100 μM ascorbic acid, 90 min): 61.5%
- reduction of ascorbate intracellular content ([4]; 50 μM nifedipine, 400 μM ascorbic acid, 90 min): 67.7%
- reduction of intracellular content of collagen type I normalized to beta actin content compared to the control ([10]; 25 μM ascorbic acid): 46%
- reduction of intracellular content of collagen type I normalized to beta actin content compared to the control ([10]; 100 μM ascorbic acid): 34.4%
- increase of collagen I (normalized to beta actin) compared to control ([10]; nifedipine, 400 μM ascorbic acid): 23%
- effect on collagen I content (normalized to beta actin) ([10]; nifedipine, ascorbyl palmitate at 5 μM and 20 μM): no significant effect
- reduction of ascorbate-dependent intracellular collagen type 1 synthesis ([11]; 25 μM ascorbic acid): 61%
- reduction of ascorbate-dependent intracellular collagen type 1 synthesis ([11]; 100 μM ascorbic acid): 49.1%
- increase of intracellular collagen I compared to control ([11]; nifedipine with 400 μM ascorbic acid): 122%
- reduction of ascorbate-dependent collagen type 1 synthesis ([11]; ascorbyl palmitate at 5 (unit not given)): 20.3%
- reduction of ascorbate-dependent collagen type 1 synthesis ([11]; ascorbyl palmitate at 20 (unit not given)): 38%
- reduction of ascorbyl palmitate dependent deposition of collagen type 1 to the ECM ([2]; 1.25 μM ascorbyl palmitate): 25%
- reduction of ascorbyl palmitate dependent deposition of collagen type 1 to the ECM ([2]; 2.5 μM ascorbyl palmitate): 38%
- reduction of ascorbyl palmitate dependent deposition of collagen type 1 to the ECM ([2]; 5 μM ascorbyl palmitate): 27.5%
- reduction of ascorbyl palmitate dependent deposition of collagen type 1 to the ECM ([2]; 10 μM ascorbyl palmitate): 11%
- reduction of ascorbyl palmitate dependent deposition of collagen type 1 to the ECM ([2]; 20 μM ascorbyl palmitate): 26.5%
- reduction of ascorbic acid dependent deposition of collagen type 1 to the ECM ([2]; 25 μM ascorbic acid): 62.3%
- reduction of ascorbic acid dependent deposition of collagen type 1 to the ECM ([2]; 100 μM ascorbic acid): 41.8%
- reduction of ascorbic acid dependent deposition of collagen type 1 to the ECM ([2]; 400 μM ascorbic acid): 16.5%
- decrease in ascorbyl palmitate dependent ECM deposition of collagen IV ([3]; 1.25 μM ascorbyl palmitate): 23.5%
- decrease in ascorbyl palmitate dependent ECM deposition of collagen IV ([3]; 2.5 μM ascorbyl palmitate): 22.7%
- decrease in ascorbyl palmitate dependent ECM deposition of collagen IV ([3]; 5 μM ascorbyl palmitate): 22%
- decrease in ascorbyl palmitate dependent ECM deposition of collagen IV ([3]; 10 μM ascorbyl palmitate): 13.5%
- decrease in ascorbyl palmitate dependent ECM deposition of collagen IV ([3]; 20 μM ascorbyl palmitate): 31.6%
- reduction of ascorbic acid dependent deposition of collagen type IV to the ECM ([3]; 25 μM ascorbic acid): 36%
- reduction of ascorbic acid dependent deposition of collagen type IV to the ECM ([3]; 100 μM ascorbic acid): 54%
- reduction of ascorbic acid dependent deposition of collagen type IV to the ECM ([3]; 400 μM ascorbic acid): 43%

SMILES: C=C[C@H]1C[N@@]2CC[C@H]1C[C@@H]2[C@@H](O)c1ccnc2ccc(OC)cc12 [quinidine]
- effects on ascorbic acid dependent collagen type I and type IV deposition in AoSMC ([2]; compared with nifedipine, data not shown): comparable results

SMILES: COc1ccc(CCN(C)CCCC(C#N)(c2ccc(OC)c(OC)c2)C(C)C)cc1OC (stereo not drawn) [verapamil]
- constitutive and platelet-derived growth factor-dependent collagen deposition in the ECM [8]: significantly decreased
